Data reported in patent US8685963B2, “Compounds that inhibit NFκB and BACE1 activity” (The Trustees of Columbia University in the city of New York, priority 2008, dated 2014).

Experiments:
NFkB [1] = experiment: TNFα-induced NFkB nuclear translocation high-content screen in HUVEC; assay type: cell-based, human
Text: FIG. 5A-B depicts (A) The two-color dual luciferase based assay. IκBα is fused to a luciferase emitting greenlight (CBG68), while a red light-emitting luciferase (CBR) is present in its native state. Both luciferases are regulated by binding of the tet repressor to the tet operator (TO) binding site (TO), allowing simultaneous induction of the luciferases by the CMV promoter upon addition of doxycycline and test compounds. The CBR protein serves to normalize for non-specific effects, while the levels of the IκBα-CBG68 protein increase uniquely with inhibition of the NFκB pathway leading to IκBα degradation. (B) The nuclear translocation assay. TNFα stimulation results in nuclear translocation of NFκB, which is detected by immunofluorescence using an anti-p65 antibody and a secondary antibody labeled with an Alexa 647 fluorophore (A647). […] In the assay, nuclear translocation of the endogenous p65 RelA subunit of NFkB, at 30 min post-stimulation, was monitored using fluorescent antibody detection and an automated imaging platform. (Mayer et al., 2006, Methods Enzyme 414:266) NFkB inhibitors in this assay, such as IkBα stabilizers, were detected as compounds that interfered with p65 translocation to the nucleus.

IkBα = experiment: dual luciferase IkBα stabilization screen in OCI-Ly3; assay type: cell-based; settings: OCI-Ly3 cells
Text: FIG. 5A-B depicts (A) The two-color dual luciferase based assay. IκBα is fused to a luciferase emitting greenlight (CBG68), while a red light-emitting luciferase (CBR) is present in its native state. Both luciferases are regulated by binding of the tet repressor to the tet operator (TO) binding site (TO), allowing simultaneous induction of the luciferases by the CMV promoter upon addition of doxycycline and test compounds. The CBR protein serves to normalize for non-specific effects, while the levels of the IκBα-CBG68 protein increase uniquely with inhibition of the NFκB pathway leading to IκBα degradation. (B) The nuclear translocation assay. TNFα stimulation results in nuclear translocation of NFκB, which is detected by immunofluorescence using an anti-p65 antibody and a secondary antibody labeled with an Alexa 647 fluorophore (A647). […]
To identify modulators of IkBα stability in ABC-DLBCL lines, such as small molecules inhibiting IKK or proteasome activity, changes in the level of an exogenous IkBα-luciferase fusion reporter expressed by an NFkB-insensitive promoter were measured. […] Upon doxycycline induction of both luciferase reporters, compounds that increased green luminescence with minimal effects on the red luminescence signal were scored as IkBα stabilizers. […]

NFkB [2] = experiment: NFkB-dependent β-lactamase reporter assay (NFkB-bla), TNFα stimulated; assay type: cell-based
Text: By way of example, and not of limitation, such an assay may comprise contacting a cell expressing the NFκβ-dependent reporter construct, and monitoring the level of β-lactamase expression, wherein a decrease in expression compared to a cell not contacted with the compound indicates a reduction in NFκB activity.
The above-described assays were validated using known inhibitors of the NFkB pathway (FIG. 6). The proteasome inhibitor MG-132 (1) 16 served as a positive control for the IkBα stabilization assay. The translocation assay used BAY 11-7082 (2), an agent that inhibits the TNFα-induced phosphorylation of IkBα. […] Additionally, a substituted 2-(thiophen-2-yl)quinazoline 3 which acts as an inhibitor of NFkB and Aβ1 mediated transcriptional activation (Palanki et al., 2003, Bioorg. Med. Chem. Lett. 13:4077) was used as a positive control in a secondary assay that used TNFα to stimulate NFkB-dependent expression of a β-lactamase reporter (NFkB-bla in FIG. 7). This compound also served as a negative control for the dual luciferase IkBa stabilization assay.

identified in IkBα stabilization screen (IkBα): identified
SMILES: O=S(=O)(Nc1cccc2cccnc12)c1ccccc1 [Compound 4, N-(quinolin-8-yl)benzenesulfonamide]
identified in NFkB translocation screen (NFkB [1]): identified
ability to inhibit the NFkB pathway (β-lactamase reporter) (NFkB [2]): confirmed the ability of these compounds to inhibit the NFkB pathway
